Patent US20150025077A1 (COYOTE PHARMACEUTICALS, INC., priority 2012, published 2015)

system: HSP70; experiment: HSP70 levels in Neuro 2a cells, ELISA; type: cell-based, mouse; conditions: 10 nM, 48 hrs compound then 24 hrs GGTI-298
Experimental: Mouse neuroblastoma 2a cells were cultured in DMEM with 10% FBS for 24 hrs. […] After 24 hrs cells were harvested and lysates were prepared and analyzed by ELISA for HSP70. Compound ID numbers in table refer to structures in Table 1 and Table 2.

With CC(C)=CCC/C(C)=C/CC/C(C)=C/COC(=S)NC1CC1 [Compound 9d, Cyclopropyl 2E, 6E-farnesyl thiocarbamate] the “HSP70 level, ELISA signal (absence of compounds normalized as 1.00)” value was 1.05.

same assay, conditions: 100 nM, 48 hrs compound then 24 hrs GGTI-298

In order of rising “HSP70 level, ELISA signal (absence of compounds normalized as 1.00)” value:
1. CC(C)=CCC/C(C)=C/CC/C(C)=C/CC/C(C)=C/CCC(=O)C(C)(C)C [Compound 60]  0.89
2. CCNC(=O)OC(C)CC/C=C(\C)CC/C=C(\C)CCC=C(C)C (stereo not drawn) [Compound 20a, Ethyl 5E,9E-farnesyl prop-2-yl carbamate]  0.91
3. CC(=O)CC/C=C(\C)CCC=C1CCCCC1 [Compound 92]  0.92
4. CC(C)=CCC/C(C)=C/CC/C(C)=C/CC/C(C)=C/COC(=O)Nc1ccccn1 [Compound 40b, (2E,6E,10E)-3,7,11,15-tetramethylhexadeca-2,6,10,14-tetraen-1-yl pyridin-2-ylcarbamate]  0.92
5. CC(C)=CCC/C(C)=C/CC/C(C)=C/CC/C(C)=C/CC1CCCCCC1=O (stereo not drawn) [Compound 147]  0.94
6. CCOC(=O)C(C/C=C(\C)CC/C=C(\C)CC/C=C(\C)CCC=C(C)C)C(C)=O (stereo not drawn) [Compound 87]  0.95
7. CC(C)=CCC/C(C)=C/CC/C(C)=C/CC/C(C)=C/CCC(C)OC(=O)NC1CCCC1 (racemic) [Compound 23c, Cyclopentyl 5E, 9E, 13E-geranylgeranyl-rac-prop-2-yl carbamate]  0.96
8. CC(C)=CCC/C(C)=C/CC/C(C)=C/CC/C(C)=C/COC(=O)Nc1cccnc1 [Compound 7z, 3′-Pyridyl 2E, 6E,10E-geranylgeranyl carbamate]  0.96
9. CCOC(=O)C1(C/C=C(\C)CC/C=C(\C)CC/C=C(\C)CCC=C(C)C)CCCC1=O (stereo not drawn) [Compound 79]  0.98
10. CC(C)=CCC/C(C)=C/CC/C(C)=C/CC/C(C)=C/CNCCCOC(C)C [Compound 17d]  1.01
11. CC(C)=CCC/C(C)=C/CC/C(C)=C/CC/C(C)=C/CC/C(C)=N/OCc1ccccc1 [Compound 113]  1.01
12. CCOC(=O)C(C/C=C(\C)CC/C=C(\C)CC/C=C(\C)CCC=C(C)C)C(=O)C(C)C (stereo not drawn) [Compound 77]  1.03
13. CC(C)=CCC/C(C)=C/CC/C(C)=C/CC/C(C)=C/COC(=O)Nc1ccc(C(=O)c2ccccc2)cc1 [Compound 7u, p-Benzoyl phenyl 2E, 6E, 10E-geranylgeranyl carbamate]  1.03
14. CC(C)=CCC/C(C)=C/CC/C(C)=C/CC/C(C)=C/C1=N[C@H](C)CO1 [Compound 27d, (R)-4-methyl-2-((1E,5E,9E)-2,6,10,14-tetramethylpentadeca-1,5,9,13-tetraen-1-yl)-4,5-dihydrooxazole]  1.04
15. CCC(=O)CC/C=C(\C)CC/C=C(\C)CCC=C(C)C [Compound 102]  1.04
16. CC(C)=CCC/C(C)=C/CC/C(C)=C/CC/C(C)=C/COC(=S)NCc1ccco1 [Compound 38b, O-((2E,6E,10E)-3,7,11,15-tetramethylhexadeca-2,6,10,14-tetraen-1-yl) (furan-2-ylmethyl)carbamothioate]  1.04
17. CC(C)=CCC/C(C)=C/CC/C(C)=C/CC/C(C)=C/COC(=O)NCc1ccco1 [Compound 7aa, 2′-Furanyl methyl 2E, 6E, 10E]-geranylgeranyl carbamate]  1.05
18. COc1ccc(NC(=O)OC/C=C(\C)CC/C=C(\C)CC/C=C(\C)CCC=C(C)C)cc1OC [Compound 7t, 3′,4′-Dimethoxyphenyl 2E, 6E, 10E-geranylgeranyl carbamate]  1.07
19. CC(C)=CCC/C(C)=C/CC/C(C)=C/CC/C(C)=C/CCC(=O)C(C)C [Compound 74]  1.08
20. CCC(=CCCC(C)=O)CC/C=C(\C)CC/C=C(\C)CCC=C(C)C [Compound 117]  1.08
21. CC(C)=CCC/C(C)=C/CC/C(C)=C/CC/C(C)=C/CN(C)C1CCCCC1 [Compound 17a, N-Cyclohexyl N-Methyl-2E,6E,10E-Geranylgeranyl amine]  1.09
22. CC(C)=CCC/C(C)=C/CC/C(C)=C/CC/C(C)=C/CC/C(C)=N/OC1CCCCO1 (stereo not drawn) [Compound 111]  1.10
23. C=CCO/N=C(\C)CC/C=C(\C)CC/C=C(\C)CC/C=C(\C)CCC=C(C)C [Compound 109]  1.12
24. C=CCCC(=O)CC/C=C(\C)CC/C=C(\C)CC/C=C(\C)CCC=C(C)C [Compound 146]  1.13
25. CC(C)=CCC/C(C)=C/CC/C(C)=C/CC/C(C)=C/COC(=O)Nc1ccccc1 [Compound 7n, Phenyl 2E, 6E, 10E-geranylgeranyl carbamate]  1.20

same assay, conditions: 10uM, 48 hrs compound then 24 hrs GGTI-298

In order of rising “HSP70 level, ELISA signal (absence of compounds normalized as 1.00)” value:
1. CCNC(=O)OC/C=C(\C)CC/C=C(\C)CCC=C(C)C [Compound 8h, Ethyl 2E, 6E-farnesyl carbamate]  0.86
2. COc1ccc(C(=O)OC/C=C(\C)CC/C=C(\C)CC/C=C(\C)CCC=C(C)C)c(OC)c1 [Compound 2k, 2E, 6E, 10E-Geranylgeranyl-2′,4′-dimethoxybenzoate]  0.88
3. CC(C)=CCC/C(C)=C/CC/C(C)=C/CC/C(C)=C/COC(=O)Nc1cccc2ccccc12 [Compound 7r, 1′-Naphthyl 2E, 6E, 10E-geranylgeranyl carbamate]  0.89
4. CCOc1ccccc1C(=O)OC/C=C(\C)CC/C=C(\C)CC/C=C(\C)CCC=C(C)C [Compound 2j, 2E, 6E, 10E-Geranylgeranyl-2′ethoxybenzoate]  0.95
5. CC(C)=CCC/C(C)=C/CC/C(C)=C/COC(=S)NC1CC1 [Compound 9d, Cyclopropyl 2E, 6E-farnesyl thiocarbamate]  0.95
6. CCOC(=O)CNC(=O)OC/C=C(\C)CC/C=C(\C)CCC=C(C)C [Compound 8k, Carboethoxymethyl 2E, 6E-farnesyl carbamate]  0.99
7. CCOC(=O)CNC(=O)OC/C=C(\C)CC/C=C(\C)CC/C=C(\C)CCC=C(C)C [Compound 7p, Ethoxycarbonyl methyl 2E, 6E, 10E-geranylgeranyl carbamate]  1.00
8. CC(C)=CCC/C(C)=C/CC/C(C)=C/CC/C(C)=C/COC(=O)Nc1ccc2c(c1)Cc1ccccc1-2 [Compound 7x, 9′H-Fluoren-2′-yl isocyanate 2E, 6E, 10E-geranylgeranyl carbamate]  1.00
9. CC(C)=CCC/C(C)=C/c1nc(-c2ccncc2)no1 [Compound 35d, (E)-5-(2,6-dimethylhepta-1,5-dien-1-yl)-3-(pyridin-4-yl)-1,2,4-oxadiazole]  1.05
10. COc1ccc(-c2nnc(/C=C(\C)CC/C=C(\C)CC/C=C(\C)CCC=C(C)C)o2)cc1 [Compound 29c, 2-(4-methoxyphenyl)-5-((1E,5E,9E)-2,6,10,14-tetramethylpentadeca-1,5,9,13-tetraen-1-yl)-1,3,4-oxadiazole]  1.06
11. CC(C)=CCC/C(C)=C/CC/C(C)=C/CC/C(C)=C/c1nnc(-c2cccnc2)o1 [Compound 29e, 2-(pyridin-3-yl)-5-((1E,5E,9E)-2,6,10,14-tetramethylpentadeca-1,5,9,13-tetraen-1-yl)-1,3,4-oxadiazole]  1.10
12. CC(C)=CCC/C(C)=C/CC/C(C)=C/COS(=O)(=O)c1ccccc1 [Compound 6a, 2E, 6E-Farnesyl benzenesulfonate]  1.11
13. COc1ccc(-c2nnc(/C=C(\C)CC/C=C(\C)CC/C=C(\C)CCC=C(C)C)o2)cc1OC [Compound 29d, 2-(3,4-dimethoxyphenyl)-5-((1E,5E,9E)-2,6,10,14-tetramethylpentadeca-1,5,9,13-tetraen-1-yl)-1,3,4-oxadiazole]  1.12
14. CC(C)=CCC/C(C)=C/CC/C(C)=C/CC/C(C)=C/COC(=O)Nc1ccc(C)cc1 [Compound 7o, P-Tolyl 2E, 6E, 10E-geranylgeranyl carbamate]  1.15
15. CNC(=S)OC/C=C(\C)CC/C=C(\C)CC/C=C(\C)CCC=C(C)C [Compound 10a, Methyl 2E,6E,10E-geranylgeranyl thiocarbamate]  1.17
16. CC(C)=CCC/C(C)=C/CC/C(C)=C/COS(=O)(=O)c1ccc(C)cc1 [Compound 6b, 2E, 6E-Farnesyl p-toluenesulfonate]  1.18
17. CC(C)=CCC/C(C)=C/CC/C(C)=C/CC/C(C)=C/CN(C)C1CCCCC1 [Compound 17a, N-Cyclohexyl N-Methyl-2E,6E,10E-Geranylgeranyl amine]  1.22
18. CC(C)=CCC/C(C)=C/CC/C(C)=C/CC/C(C)=C/c1nnc(-c2ccccc2)o1 [Compound 29a, 2-phenyl-5-((1E,5E,9E)-2,6,10,14-tetramethylpentadeca-1,5,9,13-tetraen-1-yl)-1,3,4-oxadiazole]  1.22
19. CNC(=O)OC/C=C(\C)CC/C=C(\C)CCC=C(C)C [Compound 42]  1.25
20. CC(C)=CCC/C(C)=C/CC/C(C)=C/COC(=O)NC1CCCCCC1 [Compound 8d, Cycloheptyl 2E, 6E-farnesyl carbamate]  1.33
21. CC(C)=CCC/C(C)=C/CC/C(C)=C/CC/C(C)=C/C1=N[C@H](C)CO1 [Compound 27d, (R)-4-methyl-2-((1E,5E,9E)-2,6,10,14-tetramethylpentadeca-1,5,9,13-tetraen-1-yl)-4,5-dihydrooxazole]  1.37
22. CCC(C)NC(=S)OC/C=C(\C)CC/C=C(\C)CC/C=C(\C)CCC=C(C)C (stereo not drawn) [Compound 10c, sec-Butyryl 2E,6E,10E-geranylgeranyl thiocarbamate]  1.53
